# Patent US8410145B2, “Insecticidal compounds” (Syngenta Crop Protection LLC, priority 2007, dated 2013)
# Legend:
# Format in all cases: in vivo
# [1] = test system: Spodoptera littoralis, Heliothis virescens, Plutella xylostella, Diabrotica balteata, Thrips tabaci, Tetranychus urticae; test: Pesticidal tests, same protocols (all six pests taken together); conditions: same protocols as b207 (200 ppm), under the test conditions
# From the text: (§1) Cotton leaf discs were placed on agar in a 24-well microtiter plate and sprayed with test solutions at an application rate of 200 ppm. After drying, the leaf discs were infested with 5 to L1 larvae. The samples were checked for mortality, feeding behavior, and growth regulation 3 days after treatment (DAT). The following compounds gave at least 80% control of Spodoptera littoralis: A1, A2, A3, A4, A6, A9, A10, A11, A12, A13, A14, A15, A16, A19, A20, A22, A23, A25, A26, A27, B1, B2, B3, B5, B6, B7, B8, B9, B11, B12, B13, B15, B16, B18, B19, B20, B21, B22, B24, B26, B27, B28, C1, C2, C3, C4, C5, C6, C7, C8, C9, C10, C12, C13, C16, C19, C20, C21, C22, C23, D1, D2, D3, D4, D5, D6, D7, D8, D9, D10, D11, D12, D13, D14, D15, D16, D17, D18, D19, D20, D21, D22, D23, D24. Heliothis virescens (Tobacco Budworm): Eggs (0-24 h old) were placed in 24-well microtiter plate on artificial diet and treated with test solutions at an application rate of 200 ppm (concentration in well 18 ppm) by pipetting. After an incubation period of 4 days, samples were checked for egg mortality, larval mortality, and growth regulation. The following compounds gave at least 80% control of Heliothis virescens: A1, A2, A3, A4, A13, A15, A17, A19, A20, A22, A23, A25, A26, A28, B1, B2, B3, B5, B6, B7, B9, B11, B13, B15, B18, B19, B20, B21, B25, B26, B27, B28, C1, C2, C3, C4, C5, C6, C7, C8, C9, C10, C12, C14, C16, C17, C19, C20, C21, C22, D1, D2, D3, D4, D5, D6, D7, D8, D9, D10, D11, D12, D13, D14, D15, D16, D17, D18, D19, D20, D21, D22, D23, E1, E2, E3, E4, E5. Plutella xylostella (Diamond Back Moth): 24-well microtiter plate (MTP) with artificial diet was treated with test solutions at an application rate of 200 ppm (concentration in well 18 ppm) by pipetting. After drying, the MTP's were infested with L2 larvae (7-12 per well). After an incubation period of 6 days, samples were checked for larval mortality and growth regulation. The following compounds gave at least 80% control of Plutella xylostella: A1, A3, A4, A10, All, A15, A19, A23, A25, B1, B2, B3, B5, B6, B7, B8, B9, B11, B13, B15, B18, B19, B20, B21, B26, B27, B28, C1, C2, C3, C4, C6, C7, C8, C9, C12, C16, C19, C20, C22, D1, D2, D3, D4, D5, D6, D7, D8, D9, D10, D12, D13, D14, D15, D16, D17, D18, D19, D20, D21, D22, D23, E1, E3, E5. Diabrotica balteata (Corn Root Worm): A 24-well microtiter plate (MTP) with artificial diet was treated with test solutions at an application rate of 200 ppm (concentration in well 18 ppm) by pipetting. After drying, the MTP's were infested with L2 larvae (6-10 per well). After an incubation period of 5 days, samples were checked for larval mortality and growth regulation. The following compounds gave at least 80% control of Diabrotica balteata: A2, A3, A4, A9, A11, A12, A13, A14, A15, A17, A19, A21, A22, A23, A24, A25, A26, B1, B2, B3, B6, B7, B8, B11, B13, B14, B15, B18, B19, B20, B21, B22, B26, B28, C1, C2, C3, C4, C5, C6, C7, C8, C9, C10, C12, C14, C15, C16, C19, C20, C21, C22, C23, C26, D1, D2, D4, D5, D6, D7, D8, D9, D10, D12, D14, D15, D16, D17, D18, D19, D20, D21, D22, D23, E2, E3, E5. Thrips tabaci (Onion Thrips): Sunflower leaf discs were placed on agar in a 24-well microtiter plate and sprayed with test solutions at an application rate of 200 ppm. After drying, the leaf discs were infested with an […] population of mixed ages. After an incubation period of 7 days, samples were checked for mortality. The following compounds gave at least 80% control of Thrips tabaci: B1, B7, B11, B15, B18, B19, B28, D1, D2, D3, D4, D5, D6, D7, D8, D9, D10, D12, D16, D18, D19, D20, D21, D23. Tetranychus urticae (Two-Spotted Spider Mite): Bean leaf discs on agar in 24-well microtiter plates were sprayed with test solutions at an application rate of 200 ppm. After drying, the leaf discs are infested with mite populations of mixed ages. 8 days later, discs are checked for egg mortality, larval mortality, and adult mortality. […]
# [2] = test system: Spodoptera littoralis (Egyptian Cotton Leafworm); test: Spodoptera littoralis cotton leaf disc spray test; conditions: foliar, 72 h, 200 ppm spray on cotton leaf discs, L1 larvae, mortality, feeding behavior, growth regulation 3 DAT
# From the text: as §1
# [3] = test system: Diabrotica balteata (Corn Root Worm); test: Diabrotica balteata larvae test on artificial diet; conditions: 120 h, 200 ppm (concentration in well 18 ppm), L2 larvae, larval mortality and growth regulation after 5 days
# From the text: as §1
# [4] = test system: Heliothis virescens (Tobacco Budworm); test: Heliothis virescens egg test on artificial diet; conditions: 96 h, 200 ppm (concentration in well 18 ppm), eggs 0-24 h old on artificial diet, egg mortality, larval mortality, growth regulation after 4 days
# From the text: as §1
# [5] = test system: Plutella xylostella (Diamond Back Moth); test: Plutella xylostella larvae test on artificial diet; conditions: 144 h, 200 ppm (concentration in well 18 ppm), L2 larvae, larval mortality and growth regulation after 6 days
# From the text: as §1
SMILES,"effect on mortality, feeding behavior, or growth regulation [1]",pest or weed control at 200 ppm [2] [%],pest or weed control at 200 ppm [3] [%],pest or weed control at 200 ppm [4] [%],pest or weed control at 200 ppm [5] [%]
O=C(Nc1cccc(C2=NOC(c3cc(Cl)cc(Cl)c3)(C(F)(F)F)C2)c1)c1ccc(F)c(C(F)(F)F)c1 (racemic) [A18],little or no effect,,,,
O=C(Nc1cccc(C2=NOC(c3cc(Cl)cc(Cl)c3)(C(F)(F)F)C2)c1F)c1cc(C(F)(F)F)ccc1F (racemic) [B23],little or no effect,,,,
O=C(Nc1cc(C2=NOC(c3cc(Cl)cc(Cl)c3)(C(F)(F)F)C2)ccc1F)c1cc(Cl)ccc1F (racemic) [C11],little or no effect,,,,
O=C(Nc1cc(C2=NOC(c3cc(Cl)cc(Cl)c3)(C(F)(F)F)C2)ccc1F)c1cc(C(F)(F)F)ccc1F (racemic) [C25],little or no effect,,,,
O=C(Cc1ccc(Cl)cc1)Nc1cccc(C2=NOC(c3cc(Cl)cc(Cl)c3)(C(F)(F)F)C2)c1 (stereo not shown) [A5],little or no effect,,,,
"CCCCC(=O)Nc1cccc(C2=NOC(c3cc(Cl)cc(Cl)c3)(C(F)(F)F)C2)c1 (stereo not shown) [A6, pentanoic acid {3-[5-(3,5-dichloro-phenyl)-5-trifluoromethyl-4,5-dihydro-isoxazol-3-yl]-phenyl}-amide]",,≥ 80,,,
COCC(=O)Nc1cccc(C2=NOC(c3cc(Cl)cc(Cl)c3)(C(F)(F)F)C2)c1 (stereo not shown) [A7],little or no effect,,,,
Cc1ccccc1C(=O)Nc1cccc(C2=NOC(c3cc(Cl)cc(Cl)c3)(C(F)(F)F)C2)c1F (stereo not shown) [B2],,≥ 80,≥ 80,≥ 80,≥ 80
O=C(Nc1cccc(C2=NOC(c3cc(Cl)cc(Cl)c3)(C(F)(F)F)C2)c1F)c1ccccc1Cl (stereo not shown) [B3],,≥ 80,≥ 80,≥ 80,≥ 80
Cc1ccc(C(=O)Nc2cccc(C3=NOC(c4cc(Cl)cc(Cl)c4)(C(F)(F)F)C3)c2F)cc1 (stereo not shown) [B6],,≥ 80,≥ 80,≥ 80,≥ 80
O=C(Nc1cccc(C2=NOC(c3cc(Cl)cc(Cl)c3)(C(F)(F)F)C2)c1F)c1ccccc1 (stereo not shown) [B16],,≥ 80,,,
O=C(Nc1cccc(C2=NOC(c3cc(Cl)cc(Cl)c3)(C(F)(F)F)C2)c1F)c1cccc(F)c1F (stereo not shown) [B21],,≥ 80,≥ 80,≥ 80,≥ 80
O=C(Nc1cccc(C2=NOC(c3cc(Cl)cc(Cl)c3)(C(F)(F)F)C2)c1F)c1ccc(F)cc1F (stereo not shown) [B22],,≥ 80,≥ 80,,
O=C(Nc1cccc(C2=NOC(c3cc(Cl)cc(Cl)c3)(C(F)(F)F)C2)c1F)c1ccccn1 (stereo not shown) [B25],,,,≥ 80,
O=C(Nc1cccc(C2=NOC(c3cc(Cl)cc(Cl)c3)(C(F)(F)F)C2)c1F)c1cccnc1 (stereo not shown) [B26],,≥ 80,≥ 80,≥ 80,≥ 80
CSc1ccccc1C(=O)Nc1cccc(C2=NOC(c3cc(Cl)cc(Cl)c3)(C(F)(F)F)C2)c1F (stereo not shown) [B27],,≥ 80,,≥ 80,≥ 80
N#Cc1ccc(C(=O)Nc2cc(C3=NOC(c4cc(Cl)cc(Cl)c4)(C(F)(F)F)C3)ccc2F)cc1 (stereo not shown) [C1],,≥ 80,≥ 80,≥ 80,≥ 80
O=C(Nc1cc(C2=NOC(c3cc(Cl)cc(Cl)c3)(C(F)(F)F)C2)ccc1F)c1ccccc1F (stereo not shown) [C5],,≥ 80,≥ 80,≥ 80,
Cc1ccccc1C(=O)Nc1cc(C2=NOC(c3cc(Cl)cc(Cl)c3)(C(F)(F)F)C2)ccc1F (stereo not shown) [C6],,≥ 80,≥ 80,≥ 80,≥ 80
O=C(Nc1cc(C2=NOC(c3cc(Cl)cc(Cl)c3)(C(F)(F)F)C2)ccc1F)c1ccccc1Cl (stereo not shown) [C7],,≥ 80,≥ 80,≥ 80,≥ 80
O=C(Nc1cc(C2=NOC(c3cc(Cl)cc(Cl)c3)(C(F)(F)F)C2)ccc1F)c1ccc([N+](=O)[O-])cc1 (stereo not shown) [C8],,≥ 80,≥ 80,≥ 80,≥ 80
O=C(Nc1cc(C2=NOC(c3cc(Cl)cc(Cl)c3)(C(F)(F)F)C2)ccc1F)c1ccco1 (stereo not shown) [C13],,≥ 80,,,
O=C(Nc1cc(C2=NOC(c3cc(Cl)cc(Cl)c3)(C(F)(F)F)C2)ccc1F)c1ccccc1 (stereo not shown) [C19],,≥ 80,≥ 80,≥ 80,≥ 80
O=C(Nc1cc(C2=NOC(c3cc(Cl)cc(Cl)c3)(C(F)(F)F)C2)ccc1F)c1ccc(F)cc1 (stereo not shown) [C20],,≥ 80,≥ 80,≥ 80,≥ 80
O=C(Nc1cc(C2=NOC(c3cc(Cl)cc(Cl)c3)(C(F)(F)F)C2)ccc1F)c1cccc(F)c1F (stereo not shown) [C23],,≥ 80,≥ 80,,
N#Cc1ccc(C2=NOC(c3cc(Cl)cc(Cl)c3)(C(F)(F)F)C2)cc1NC(=O)c1ccco1 (stereo not shown) [D13],,≥ 80,,≥ 80,≥ 80
N#Cc1ccc(C2=NOC(c3cc(Cl)cc(Cl)c3)(C(F)(F)F)C2)cc1NC(=O)c1cccc(F)c1F (stereo not shown) [D22],,≥ 80,≥ 80,≥ 80,≥ 80
Cc1cc(NC(=O)c2ccc(C#N)cc2)cc(C2=NOC(c3cc(Cl)cc(Cl)c3)(C(F)(F)F)C2)c1 (stereo not shown) [E1],,,,≥ 80,≥ 80
